Experiments:
[1] = system: Puccinia recondita f. Sp. Tritici; experiment: Puccinia recondita f. sp. tritici / wheat / leaf disc curative (brown rust); assay type: in vivo; settings: foliar, 24 h, 200 ppm in the applied formulation, wheat leaf segments cv. Kanzler, curative (applied 1 day after inoculation), compared to untreated control, read-out: disease control
Protocol: Leaf disks or leaf segments of various plant species are cut from plants grown in a greenhouse. The cut leaf disks or segments are placed in multiwell plates (24-well format) onto water agar. The leaf disks are sprayed with a test solution before (preventative) or after (curative) inoculation. Compounds to be tested are prepared as DMSO solutions (max. 10 mg/ml) which are diluted to the appropriate concentration with 0.025% Tween20 just before spraying. The inoculated leaf disks or segments are incubated under defined conditions (temperature, relative humidity, light, etc.) according to the respective test system. A single evaluation of disease level is carried out 3 to 14 days after inoculation, depending on the pathosystem. Percent disease control relative to the untreated check leaf disks or segments is then calculated. Wheat leaf segments cv. Kanzler are placed on agar in multiwell plates (24-well format). The leaf segments are then inoculated with a spore suspension of the fungus. Plates were stored in darkness at 19° C. and 75% relative humidity. The formulated test compound diluted in water was applied 1 day after inoculation. The leaf segments were incubated at 19° C. and 75% relative humidity under a light regime of 12 hours light/12 hours darkness in a climate cabinet and the activity of a compound was assessed as percent disease control compared to untreated when an appropriate level of disease damage appears in untreated check leaf segments (6 to 8 days after application).

[2] = system: Glomerella laqenarium (Colletotrichum laqenarium); experiment: Glomerella lagenarium liquid culture / cucumber / preventative (anthracnose); assay type: cell-based; settings: 20 ppm in the applied formulation, liquid culture in PDB, growth inhibition measured photometrically 3 to 4 days after application, compared to untreated control, read-out: disease control
Protocol: Mycelia fragments or conidia suspensions of a fungus prepared either freshly from liquid cultures of the fungus or from cryogenic storage, are directly mixed into nutrient broth. DMSO solutions of the test compound (max. 10 mg/ml) are diluted with 0.025% Tween20 by a factor of 50 and 10 μl of this solution is pipetted into a microtiter plate (96-well format). The nutrient broth containing the fungal spores/mycelia fragments is then added to give an end concentration of the tested compound. The test plates are incubated in the dark at 24° C. and 96% relative humidity. The inhibition of fungal growth is determined photometrically after 2 to 7 days, depending on the pathosystem, and percent antifungal activity relative to the untreated check is calculated. Conidia of the fungus from cryogenic storage are directly mixed into nutrient broth (PDB—potato dextrose broth). After placing a (DMSO) solution of test compound into a microtiter plate (96-well format), the nutrient broth containing the fungal spores is added. The test plates are incubated at 24° C. and the inhibition of growth is measured photometrically 3 to 4 days after application.

[3] = system: Puccinia recondita f. Sp. Tritici; experiment: Puccinia recondita f. sp. tritici / wheat / leaf disc preventative (brown rust); assay type: in vivo; settings: foliar, 200 ppm in the applied formulation, wheat leaf segments cv. Kanzler, preventative (inoculated 1 day after application), compared to untreated control, read-out: disease control
Protocol: Leaf disks or leaf segments of various plant species are cut from plants grown in a greenhouse. The cut leaf disks or segments are placed in multiwell plates (24-well format) onto water agar. The leaf disks are sprayed with a test solution before (preventative) or after (curative) inoculation. Compounds to be tested are prepared as DMSO solutions (max. 10 mg/ml) which are diluted to the appropriate concentration with 0.025% Tween20 just before spraying. The inoculated leaf disks or segments are incubated under defined conditions (temperature, relative humidity, light, etc.) according to the respective test system. A single evaluation of disease level is carried out 3 to 14 days after inoculation, depending on the pathosystem. Percent disease control relative to the untreated check leaf disks or segments is then calculated. Wheat leaf segments cv. Kanzler were placed on agar in multiwell plates (24-well format) and sprayed with the formulated test compound diluted in water. The leaf disks were inoculated with a spore suspension of the fungus 1 day after application. The inoculated leaf segments were incubated at 19° C. and 75% relative humidity (rh) under a light regime of 12 hours light/12 hours darkness in a climate cabinet and the activity of a compound was assessed as percent disease control compared to untreated when an appropriate level of disease damage appears in untreated check leaf segments (7 to 9 days after application).

Compound | melting point | pest or weed control at 200 ppm [1] | inhibition of growth at 20 ppm [2] | pest or weed control at 200 ppm [3]
Fc1ccc(OCc2ccc(-c3noc(C(F)(F)F)n3)cc2)cc1 [Compound 1.6, 3-[4-[(4-fluorophenoxy)methyl]phenyl]-5-(trifluoromethyl)-1,2,4-oxadiazole] | 174 to 176 °C | ≥ 80% | – | –
FC(F)(F)c1nc(-c2ccc(COc3ccccc3)cc2)no1 [Compound 1.7, 3-[4-(phenoxymethyl)phenyl]-5-(trifluoromethyl)-1,2,4-oxadiazole] | 105 to 107 °C | ≥ 80% | – | –
FC(F)(F)c1nc(-c2ccc(COc3ccccn3)cc2)no1 [Compound 1.9, 3-[4-(2-pyridyloxymethyl)phenyl]-5-(trifluoromethyl)-1,2,4-oxadiazole] | 86 to 88 °C | ≥ 80% | ≥ 80% | ≥ 80%
Fc1cccc(F)c1OCc1ccc(-c2noc(C(F)(F)F)n2)cc1 [Compound 1.10, 3-[4-[(2,6-difluorophenoxy)methyl]phenyl]-5-(trifluoromethyl)-1,2,4-oxadiazole] | 66 to 68 °C | ≥ 80% | – | –
Fc1c(COc2ccccc2)ccc(-c2noc(C(F)(F)F)n2)c1F [Compound 1.12, 3-[2,3-difluoro-4-(phenoxymethyl)phenyl]-5-(trifluoromethyl)-1,2,4-oxadiazole] | 113 to 115 °C | – | – | –
N#Cc1ccc(OCc2ccc(-c3noc(C(F)(F)F)n3)cc2)nc1 [Compound 1.14, 6-[[4-[5-(trifluoromethyl)-1,2,4-oxadiazol-3-yl]phenyl]methoxy]pyridine-3-carbonitrile] | 156 to 158 °C | – | ≥ 80% | ≥ 80%
Cc1ccc(OCc2ccc(-c3noc(C(F)(F)F)n3)cc2)nc1 [Compound 1.15, 3-[4-[(5-methyl-2-pyridyl)oxymethyl]phenyl]-5-(trifluoromethyl)-1,2,4-ioxadiazole] | 141 to 143 °C | ≥ 80% | – | –
Cc1nnc(OCc2ccc(-c3noc(C(F)(F)F)n3)cc2)o1 [Compound 1.20, 2-methyl-5-[[4-[5-(trifluoromethyl)-1,2,4-oxadiazol-3-yl]phenyl]methoxy]-1,3,4-oxadiazole] | – | – | ≥ 80% | –
FC(F)(F)c1nc(-c2ccc(COc3ccc(Br)nn3)cc2)no1 [Compound 1.21, 3-[4-[(6-bromopyridazin-3-yl)oxymethyl]phenyl]-5-(trifluoromethyl)-1,2,4-oxadiazole] | – | – | ≥ 80% | –
Cc1cccc(OC(C)c2ccc(-c3noc(C(F)(F)F)n3)cc2)n1 (stereo not shown) [Compound 1.24, 3-[4-[1-[(6-methyl-2-pyridyl)oxy]ethyl]phenyl]-5-(trifluoromethyl)-1,2,4-oxadiazole] | – | – | ≥ 80% | –
Cc1cccc(OCc2cc(F)c(-c3noc(C(F)(F)F)n3)c(F)c2)n1 [Compound 1.25, 3-[2,6-difluoro-4-[(6-methyl-2-pyridyl)oxymethyl]phenyl]-5-(trifluoromethyl)-1,2,4-oxadiazole] | 65 to 66 °C | – | ≥ 80% | –
CC1(C)CC(OCc2cc(F)c(-c3noc(C(F)(F)F)n3)c(F)c2)=NO1 [Compound 1.26, 3-[4-[(5,5-dimethyl-4H-isoxazol-3-yl)oxymethyl]-2,6-difluoro-phenyl]-5-(trifluoromethyl)-1,2,4-oxadiazole] | – | ≥ 80% | ≥ 80% | ≥ 80%
Cc1cccc(OCc2cc(F)c(-c3noc(C(F)(F)F)n3)cc2F)n1 [Compound 1.27, 3-[2,5-difluoro-4-[(6-methyl-2-pyridyl)oxymethyl]phenyl]-5-(trifluoromethyl)-1,2,4-oxadiazole] | 91 to 94 °C | – | – | –
CC(=O)OCc1ccc(-c2noc(C(F)(F)F)n2)cc1 [Compound 2.1, [4-[5-(trifluoromethyl)-1,2,4-oxadiazol-3-yl]phenyl]methyl acetate] | – | – | ≥ 80% | ≥ 80%
CC(C)(C)C(=O)OCc1ccc(-c2noc(C(F)(F)F)n2)cc1 [Compound 2.3, [4-[5-(trifluoromethyl)-1,2,4-oxadiazol-3-yl]phenyl]methyl 2,2-dimethylpropanoate] | – | – | ≥ 80% | –
O=C(NCC(F)(F)F)OCc1ccc(-c2noc(C(F)(F)F)n2)cc1 [Compound 3.3, [4-[5-(trifluoromethyl)-1,2,4-oxadiazol-3-yl]phenyl]methyl N-(2,2,2-trifluoroethyl)carbamate] | – | ≥ 80% | ≥ 80% | ≥ 80%
CON(C)C(=O)OCc1ccc(-c2noc(C(F)(F)F)n2)cc1 [Compound 3.4, [4-[5-(trifluoromethyl)-1,2,4-oxadiazol-3-yl]phenyl]methyl N-methoxy-N-methyl-carbamate] | – | – | ≥ 80% | –
CC(OC(=O)N(C)C)c1ccc(-c2noc(C(F)(F)F)n2)cc1 (stereo not shown) [Compound 3.5, 1-[4-[5-(trifluoromethyl)-1,2,4-oxadiazol-3-yl]phenyl]ethyl N,N-dimethylcarbamate] | – | ≥ 80% | ≥ 80% | ≥ 80%

Continued, in another order:

melting point | Compound | pest or weed control at 200 ppm [1] | inhibition of growth at 20 ppm [2] | pest or weed control at 200 ppm [3]
48 to 50 °C | CC(C)C(=O)OCc1ccc(-c2noc(C(F)(F)F)n2)cc1 [Compound 2.2, [4-[5-(trifluoromethyl)-1,2,4-oxadiazol-3-yl]phenyl]methyl 2-methylpropanoate] | – | ≥ 80% | –
110 to 112 °C | CN(C(=O)OCc1ccc(-c2noc(C(F)(F)F)n2)cc1)c1ccccn1 [Compound 3.6, [4-[5-(trifluoromethyl)-1,2,4-oxadiazol-3-yl]phenyl]methyl N-methyl-N-(2-pyridyl)carbamate] | – | – | –
100 to 102 °C | CNC(=O)OCc1ccc(-c2noc(C(F)(F)F)n2)cc1 [Compound 3.7, [4-[5-(trifluoromethyl)-1,2,4-oxadiazol-3-yl]phenyl]methyl N-methylcarbamate] | – | – | –
48 to 52 °C | CC(C)=NOCc1ccc(-c2noc(C(F)(F)F)n2)cc1 [Compound 4.1, N-[[4-[5-(trifluoromethyl)-1,2,4-oxadiazol-3-yl]phenyl]methoxy]propan-2-imine] | ≥ 80% | – | –
110 to 111 °C | CC1=NN(C)C(=O)C1=NOCc1ccc(-c2noc(C(F)(F)F)n2)cc1 [Compound 4.4, 2,5-dimethyl-4-[[4-[5-(trifluoromethyl)-1,2,4-oxadiazol-3-yl]phenyl]methoxyimino]pyrazol-3-one] | – | ≥ 80% | –

Source: patent US20190345150A1, “MICROBIOCIDAL OXADIAZOLE DERIVATIVES” (SYNGENTA PARTICIPATIONS AG, priority 2016, published 2019)
